We go through two molecules from patent publication US9938257B2 (Sunshine Lake Pharma Co., Ltd., priority 2015, dated 2018).

The target of one series is FLT3 (h) (Homo sapiens (Human), UniProt P36888). Nature of the series: FLT3 (h) kinase activity assay. It is filed as biochemical. As to the method: (§1) The above assay procedure can be used to determine the IC50 for inhibition and/or the inhibition constant, Ki. The IC50 is defined as the concentration of compound required to reduce the enzyme activity by 50% under the condition of the assay. The IC50 value is estimated by preparing a 10 point curve using a ½ log dilution series (for example, a typical curve may be prepared using the following compound concentrations: 3 μM, 1 μM, 0.3 μM, 0.1 μM, 0.03 μM, 0.01 μM, 0.003 μM, 0.001 μM, 0.0003 μM and 0 μM).
Sequence of FLT3 (h) (P36888 27-993): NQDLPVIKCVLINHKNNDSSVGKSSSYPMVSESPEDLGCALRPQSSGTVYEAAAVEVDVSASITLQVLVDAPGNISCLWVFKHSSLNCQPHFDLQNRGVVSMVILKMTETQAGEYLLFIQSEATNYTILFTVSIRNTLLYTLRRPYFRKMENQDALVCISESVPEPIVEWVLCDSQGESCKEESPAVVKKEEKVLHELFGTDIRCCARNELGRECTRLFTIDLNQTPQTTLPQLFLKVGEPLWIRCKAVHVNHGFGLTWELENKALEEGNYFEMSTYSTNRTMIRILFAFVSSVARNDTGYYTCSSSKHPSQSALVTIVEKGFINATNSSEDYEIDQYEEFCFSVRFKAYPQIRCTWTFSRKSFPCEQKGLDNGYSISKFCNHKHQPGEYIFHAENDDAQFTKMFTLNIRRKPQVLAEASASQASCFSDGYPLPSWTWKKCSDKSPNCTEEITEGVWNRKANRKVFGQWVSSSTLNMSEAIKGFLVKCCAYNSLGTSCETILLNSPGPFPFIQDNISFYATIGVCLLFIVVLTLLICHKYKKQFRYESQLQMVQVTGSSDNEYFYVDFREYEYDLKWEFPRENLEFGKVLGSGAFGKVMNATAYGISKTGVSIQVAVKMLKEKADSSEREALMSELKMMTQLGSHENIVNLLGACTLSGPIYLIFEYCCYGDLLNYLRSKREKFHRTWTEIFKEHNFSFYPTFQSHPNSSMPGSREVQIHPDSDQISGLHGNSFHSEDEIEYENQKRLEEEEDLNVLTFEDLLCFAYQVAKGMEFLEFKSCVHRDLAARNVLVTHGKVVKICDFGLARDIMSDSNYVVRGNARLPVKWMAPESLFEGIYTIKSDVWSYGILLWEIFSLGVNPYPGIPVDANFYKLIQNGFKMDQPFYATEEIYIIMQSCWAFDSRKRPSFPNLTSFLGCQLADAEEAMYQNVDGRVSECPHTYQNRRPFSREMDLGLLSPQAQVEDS
FLT3 (h) is incubated with 8 mM MOPS pH 7.0, 0.2 mM EDTA, […] EAIYAAPFAKKK, 10 mM MgAcetate and [γ-^33P-ATP] (specific activity approx. 500 cpm/pmol, concentration as required). The reaction is initiated by the addition of the MgATP mix. After incubation for 40 minutes at room temperature, the reaction is stopped by the addition of 3% phosphoric acid solution. 10 μL of the reaction is then spotted onto a P30 filtermat and washed three times for 5 minutes in 75 mM phosphoric acid and once in methanol prior to drying and scintillation counting.
(§2) The kinase assays described herein were performed at Millipore UK Ltd, Dundee Technology Park, Dundee DD2 1SW, UK.

A further series deals with JAK2 (h) (Homo sapiens (Human), UniProt O60674). Put plainly: JAK2 (h) kinase activity assay. The series is classed as biochemical. As to the method:
as §1
JAK2 (h) is incubated with 8 mM MOPS pH 7.0, 0.2 mM EDTA, 100 μM […], 10 mM MgAcetate and [γ-^33P-ATP] (specific activity approx. 500 cpm/pmol, concentration as required). The reaction is initiated by the addition of the MgATP mix. After incubation for 40 minutes at room temperature, the reaction is stopped by the addition of 3% phosphoric acid solution. 10 μL of the reaction is then spotted onto a P30 filtermat and washed three times for 5 minutes in 75 mM phosphoric acid and once in methanol prior to drying and scintillation counting.
as §2

For the next series, the target named is JAK1 (h) (Homo sapiens (Human), UniProt P23458). Nature of the series: JAK1 (h) kinase activity assay. It is filed as biochemical.
Sequence of JAK1 (h) (P23458 whole entry): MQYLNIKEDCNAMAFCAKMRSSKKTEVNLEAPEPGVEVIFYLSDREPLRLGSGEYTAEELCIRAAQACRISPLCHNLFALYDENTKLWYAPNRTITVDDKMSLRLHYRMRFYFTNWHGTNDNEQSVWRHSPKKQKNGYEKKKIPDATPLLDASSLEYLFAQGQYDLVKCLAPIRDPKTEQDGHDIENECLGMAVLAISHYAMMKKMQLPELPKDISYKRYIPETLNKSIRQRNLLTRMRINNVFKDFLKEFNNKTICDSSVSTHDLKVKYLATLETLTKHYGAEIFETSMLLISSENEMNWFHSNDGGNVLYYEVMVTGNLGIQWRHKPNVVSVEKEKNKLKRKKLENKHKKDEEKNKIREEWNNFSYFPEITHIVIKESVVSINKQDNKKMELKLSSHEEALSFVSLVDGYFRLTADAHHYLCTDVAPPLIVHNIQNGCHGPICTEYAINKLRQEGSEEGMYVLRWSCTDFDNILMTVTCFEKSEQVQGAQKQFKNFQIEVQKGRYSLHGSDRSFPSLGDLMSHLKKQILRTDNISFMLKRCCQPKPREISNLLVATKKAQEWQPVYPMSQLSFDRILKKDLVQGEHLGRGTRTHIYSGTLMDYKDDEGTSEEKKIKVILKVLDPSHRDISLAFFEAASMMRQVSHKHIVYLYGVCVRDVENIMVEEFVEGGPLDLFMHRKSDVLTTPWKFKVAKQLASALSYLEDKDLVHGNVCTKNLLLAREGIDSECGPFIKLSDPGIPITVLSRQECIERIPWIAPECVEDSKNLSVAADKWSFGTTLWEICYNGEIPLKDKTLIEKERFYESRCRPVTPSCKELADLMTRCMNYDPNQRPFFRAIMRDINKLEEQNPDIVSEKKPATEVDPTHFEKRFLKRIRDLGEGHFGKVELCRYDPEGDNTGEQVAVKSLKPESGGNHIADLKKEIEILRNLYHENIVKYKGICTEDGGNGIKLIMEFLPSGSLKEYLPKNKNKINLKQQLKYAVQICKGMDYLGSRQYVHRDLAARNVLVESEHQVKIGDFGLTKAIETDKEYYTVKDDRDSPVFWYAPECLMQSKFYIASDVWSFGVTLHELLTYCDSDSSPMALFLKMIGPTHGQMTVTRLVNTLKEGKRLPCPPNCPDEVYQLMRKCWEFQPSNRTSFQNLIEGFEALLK
A further series deals with Aurora-B (h) (Homo sapiens (Human), UniProt Q96GD4). Put plainly: Aurora-B (h) kinase activity assay. The series is classed as biochemical. The method, then:
as §1
Aurora-B (h) is incubated with 8 mM MOPS pH 7.0, 0.2 mM EDTA, 30 μM AKRRRLSSLRA, 10 mM MgAcetate and [γ-^33PATP] (specific activity approx. 500 cpm/pmol, concentration as required). The reaction is initiated by the addition of the MgATP mix. After incubation for 40 minutes at room temperature, the reaction is stopped by the addition of a 3% phosphoric acid solution. 10 μL of the reaction is then spotted onto a P30 filtermat and washed three times for 5 minutes in 75 mM phosphoric acid and once in methanol prior to drying and scintillation counting.
as §2

The target of the next series is Aurora-A (h) (Homo sapiens (Human), UniProt O14965). Nature of the series: Aurora-A (h) kinase activity assay. The series is classed as biochemical. A digest of the protocol: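 Human Aurora-A in 8 mM MOPS pH 7.0, 0.2 mM EDTA, 10 mM Mg acetate, 200 μM Kemptide and [γ-33P]ATP, started with MgATP, 40 min at room temperature. Stopped with phosphoric acid; filter-bound 33P counted. IC50 from 10-point half-log dilution series.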
Sequence of Aurora-A (h) (O14965 whole entry): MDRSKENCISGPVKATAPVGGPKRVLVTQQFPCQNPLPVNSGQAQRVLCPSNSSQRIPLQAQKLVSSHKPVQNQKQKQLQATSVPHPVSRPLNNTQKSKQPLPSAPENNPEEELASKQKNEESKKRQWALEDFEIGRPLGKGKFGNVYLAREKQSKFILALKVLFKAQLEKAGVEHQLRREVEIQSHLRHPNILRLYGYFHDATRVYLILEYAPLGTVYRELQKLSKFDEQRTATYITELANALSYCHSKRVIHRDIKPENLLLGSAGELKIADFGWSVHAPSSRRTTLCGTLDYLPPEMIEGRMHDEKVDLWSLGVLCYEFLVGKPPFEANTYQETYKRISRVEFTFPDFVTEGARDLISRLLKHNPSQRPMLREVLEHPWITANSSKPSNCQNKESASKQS

The nature of series [1]: Compound stability in rat liver microsomes. The series is classed as in vitro ADME. The note with it: pH 7.4. A digest of the protocol: (§3)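 Parent compound depletion (5 μM) was tracked by LC/MS/MS over 60 min at 37° C using NADPH-fortified microsomes at 0.5 mg protein/mL. Dextromethorphan served as positive control and denatured microsomes as negative control.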
On the technique in general: Liver microsomes are a subcellular fraction often used to study metabolism.

Series [2] can be described thus: Compound stability in human liver microsomes. Particulars: pH 7.4. It is filed as in vitro ADME. A digest of the protocol:
as §3

The structures appear in SMILES notation.

Sequence of JAK2 (h) (O60674 whole entry): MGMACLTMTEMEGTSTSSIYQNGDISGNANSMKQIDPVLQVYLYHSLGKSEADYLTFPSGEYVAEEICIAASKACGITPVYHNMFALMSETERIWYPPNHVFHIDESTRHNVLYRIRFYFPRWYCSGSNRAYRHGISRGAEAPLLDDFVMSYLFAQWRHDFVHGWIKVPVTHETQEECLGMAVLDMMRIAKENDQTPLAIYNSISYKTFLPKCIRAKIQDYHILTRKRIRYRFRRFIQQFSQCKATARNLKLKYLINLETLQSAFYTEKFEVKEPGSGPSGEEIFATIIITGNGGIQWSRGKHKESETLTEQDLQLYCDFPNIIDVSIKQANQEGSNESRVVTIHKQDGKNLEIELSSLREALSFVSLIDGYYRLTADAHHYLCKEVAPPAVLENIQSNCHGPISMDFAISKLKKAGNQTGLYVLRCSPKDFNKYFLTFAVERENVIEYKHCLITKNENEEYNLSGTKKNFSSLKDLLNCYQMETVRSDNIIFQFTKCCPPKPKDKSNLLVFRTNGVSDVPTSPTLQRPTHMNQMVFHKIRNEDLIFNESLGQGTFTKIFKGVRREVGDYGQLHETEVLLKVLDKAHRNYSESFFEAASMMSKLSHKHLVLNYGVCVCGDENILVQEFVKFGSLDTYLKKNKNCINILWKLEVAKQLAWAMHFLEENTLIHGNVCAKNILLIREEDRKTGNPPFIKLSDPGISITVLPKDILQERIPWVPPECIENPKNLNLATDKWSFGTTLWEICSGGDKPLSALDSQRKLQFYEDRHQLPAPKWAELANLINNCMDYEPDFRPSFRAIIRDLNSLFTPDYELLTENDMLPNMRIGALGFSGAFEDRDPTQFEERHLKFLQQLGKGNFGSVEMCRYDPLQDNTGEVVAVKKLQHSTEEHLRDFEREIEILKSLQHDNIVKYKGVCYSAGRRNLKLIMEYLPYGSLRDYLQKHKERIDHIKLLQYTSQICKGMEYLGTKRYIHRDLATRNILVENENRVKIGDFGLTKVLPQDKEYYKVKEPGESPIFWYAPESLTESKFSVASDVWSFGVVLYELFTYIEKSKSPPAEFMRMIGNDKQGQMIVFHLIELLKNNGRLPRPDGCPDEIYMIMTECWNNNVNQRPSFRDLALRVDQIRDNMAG
Sequence of Aurora-B (h) (Q96GD4 whole entry): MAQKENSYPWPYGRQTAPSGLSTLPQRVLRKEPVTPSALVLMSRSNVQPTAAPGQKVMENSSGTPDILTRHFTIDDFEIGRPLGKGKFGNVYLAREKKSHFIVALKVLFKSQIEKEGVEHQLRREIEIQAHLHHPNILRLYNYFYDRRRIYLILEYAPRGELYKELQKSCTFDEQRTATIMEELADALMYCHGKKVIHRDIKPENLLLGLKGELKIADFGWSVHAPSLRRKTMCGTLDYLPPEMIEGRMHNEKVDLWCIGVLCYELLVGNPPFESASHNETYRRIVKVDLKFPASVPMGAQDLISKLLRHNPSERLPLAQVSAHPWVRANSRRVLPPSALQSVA

For `CCOC(=O)N1CC2CC(Nc3nc(Nc4cnn(C)c4)ncc3Cl)CC2C1` (centres unmarked) [Ex. 15, ethyl 5-((5-chloro-2-((1-methyl-1H-pyrazol-4-yl)amino)pyrimidin-4-yl)amino)hexahydrocyclopenta[c]pyrrole-2(1H)-carboxylate], the half-maximal inhibitory concentration (IC50) against FLT3 (h) came out at 503 nM; at JAK2 (h), 136 nM; against JAK1 (h) it was 8 nM; against Aurora-B (h), 2 nM; against Aurora-A (h), 10 nM.
Consider `CCNC(=O)N1CC2CC(Nc3nc(Nc4cnn(C)c4)ncc3Cl)CC2C1` (centres unmarked) [Ex. 18, 5-((5-chloro-2-((1-methyl-1H-pyrazol-4-yl)amino)pyrimidin-4-yl)amino)-N-ethylhexahydrocyclopenta[c]pyrrole-2(1H)-carboxamide], for which the IC50 against FLT3 (h) came to 1020 nM; against JAK2 (h) it was 142 nM; against JAK1 (h), 12 nM; on Aurora-B (h), 2 nM; at Aurora-A (h), 11 nM. Moreover, the half-life at 5 μM in series [1] (rat liver microsomes 0.5 mg protein/mL, compound 5 μM, NADPH 1.0 mM, 37° C., read-out: Rat T1/2) amounted to 9.46 min; in series [2] (human liver microsomes 0.5 mg protein/mL, compound 5 μM, NADPH 1.0 mM, 37° C., read-out: Human T1/2) it was 2.42 h. For the same molecule, the intrinsic clearance (CLint scaled) at 5 μM in series [1] (rat liver microsomes, in vivo CLint extrapolated) was 263 mL/min/kg; in series [2] (human liver microsomes, in vivo CLint extrapolated), 12 mL/min/kg.

For orientation: IC50 means the point on the concentration scale where inhibition reaches its midpoint. High values mean lower potency, low ones higher potency. For orientation: CLint scaled means a measure of how fast metabolising enzymes remove a compound, apart from limits set by blood flow.
